ChEMBL document CHEMBL4251546, “Discovery and hit-to-lead evaluation of piperazine amides as selective, state-dependent NaV1.7 inhibitors” (Medchemcomm, 2017)
Values after ≈ are worked out from the molar mass of the structure shown.

Assays:
[1] = Thermodynamic solubility of the compound in PBS at pH 7.4; assay type: physicochemical; settings: read-out: Therm_solubility
[2] = Cmax in mouse at 100 mg/kg, po; assay type: ADME, organism-based; design: dose 100 mg/kg, route oral; settings: in vivo
[3] = system: Mus musculus; assay: Unbound Cmax in mouse at 100 mg/kg, po; assay type: ADME, organism-based; settings: in vivo
[4] = system: MDR1 (P-gp); assay: Apparent permeability across MDCK cells transfected with MDR1; assay type: ADME, cell-based, Canis lupus familiaris; settings: dog
[5] = Plasma concentration in C57Bl/6 mouse histamine dichloride-induced pruritus model at 300 mg/kg, po; assay type: ADME, organism-based; settings: in vivo

| Structure (SMILES) | solubility thermodynamic [1] | further results |
| --- | --- | --- |
| O=C(NCc1ccccc1)[C@@H](c1ccccc1)N1CCN(C(=O)c2cc(F)ccc2Cl)CC1 | 96 µM (≈ 44.7 µg/mL) | Cmax [2]: 4.3 µM; fCmax [3]: 0.16 µM; Papp [4]: 36 ×10⁻⁶ cm/s; concentration [5]: 22 µM |
| O=C(NCc1ccccc1)[C@@H](c1ccccc1)N1CC2CC(C1)N2C(=O)c1cc(F)ccc1Cl | 83 µM (≈ 39.7 µg/mL) | – |
| CN(Cc1ccccc1)C(=O)[C@@H](c1ccccc1)N1CCN(C(=O)c2cc(F)cc(F)c2)CC1 | 220 µM (≈ 102 µg/mL) | – |
| N#Cc1ccc([C@H](C(=O)NCC2CC2)N2CC3CCC(C2)N3C(=O)c2cc(F)ccc2F)cc1 | 326 µM (≈ 151 µg/mL) | – |
| N#Cc1ccc([C@H](C(=O)Nc2ccc(OCC(F)(F)F)nc2)N2CCN(C(=O)c3cc(F)cc(F)c3)CC2)cc1 | 15 µM (≈ 8.39 µg/mL) | – |
| COc1cc([C@H](C(=O)NCc2ccccc2)N2CCN(C(=O)c3cc(F)cc(F)c3)CC2)ccc1C#N | 30 µM (≈ 15.1 µg/mL) | – |
| O=C(NCc1ccccc1)[C@@H](c1ccccc1)N1CCN(Cc2ccccc2)CC1 | 19 µM (≈ 7.59 µg/mL) | Papp [4]: 24 ×10⁻⁶ cm/s |
| O=C(NCc1ccccc1)[C@@H](c1ccccc1)N1CC2CCC(C1)N2C(=O)c1cc(F)ccc1Cl | 35 µM (≈ 17.2 µg/mL) | – |
| O=C(NCc1ccccc1)[C@@H](c1ccccc1)N1CCN(C(=O)c2cc(F)cnc2Cl)CC1 | 454 µM (≈ 212 µg/mL) | – |
| N#Cc1ccc([C@H](C(=O)NCC2CC2)N2CC3CCC(C2)N3C(=O)c2cc(F)cc(F)c2)cc1 | 322 µM (≈ 150 µg/mL) | – |
| O=C(Nc1ccc(OCC(F)(F)F)nc1)[C@@H](c1ccccc1)N1CCN(C(=O)c2cc(F)cnc2Cl)CC1 | 49 µM (≈ 27 µg/mL) | – |

Now from value to compound, other results behind:

| solubility thermodynamic [1] | Structure (SMILES) | further results |
| --- | --- | --- |
| 154 µM (≈ 77.8 µg/mL) | N#Cc1ccc([C@H](C(=O)NCC(F)(F)C2CC2)N2CCN(C(=O)c3cc(F)ccc3Cl)CC2)cc1 | Cmax [2]: 29.8 µM; fCmax [3]: 3.28 µM |
| 19 µM (≈ 10.2 µg/mL) | O=C(Nc1ccc(OCC(F)(F)F)nc1)[C@@H](c1ccccc1)N1CCN(C(=O)c2cc(F)cc(F)c2)CC1 | – |
| 74 µM (≈ 35.1 µg/mL) | N#Cc1ccc([C@H](C(=O)NCc2ccccc2)N2CCN(C(=O)c3cc(F)cc(F)c3)CC2)cc1 | – |
| 137 µM (≈ 61.6 µg/mL) | O=C(NCc1ccccc1)[C@@H](c1ccccc1)N1CCN(C(=O)c2cc(F)cc(F)c2)CC1 | – |
| 472 µM (≈ 195 µg/mL) | O=C(NCC1CC1)[C@@H](c1ccccc1)N1CCN(C(=O)c2cc(F)cc(F)c2)CC1 | – |
| 44 µM (≈ 23 µg/mL) | N#Cc1cc(OC(F)(F)F)cc(C(=O)N2CCN([C@@H](C(=O)NCc3ccccc3)c3ccccc3)CC2)c1 | – |
| 405 µM (≈ 191 µg/mL) | N#Cc1cc(F)cc(C(=O)N2CCN([C@@H](C(=O)NCC(F)(F)C3CC3)c3ccccc3)CC2)c1 | Cmax [2]: 12.8 µM; fCmax [3]: 1.66 µM |
| 225 µM (≈ 117 µg/mL) | O=C(NCc1ccc(C(F)(F)F)nc1)[C@@H](c1ccccc1)N1CCN(C(=O)c2cc(F)cc(F)c2)CC1 | – |
| 346 µM (≈ 160 µg/mL) | O=C(NCC(F)(F)C1CC1)[C@@H](c1ccccc1)N1CCN(C(=O)c2cc(F)cc(F)c2)CC1 | – |
| 248 µM (≈ 113 µg/mL) | N#Cc1cc(F)cc(C(=O)N2CCN([C@@H](C(=O)NCc3ccccc3)c3ccccc3)CC2)c1 | – |
